The source of these data is US4839342A, “Method of increasing tear production by topical administration of cyclosporin” (University of Georgia Research Foundation, Inc., priority 1987, dated 1989).

Each structure is given as a SMILES string.

The test system of this assay is aqueous tear production. The assay can be described thus: Schirmer tear test in dogs with aqueous tear deficiency / KCS. Type of assay: in vivo, dog. An excerpt: The Schirmer tear test is a test of aqueous tear production. The test depends upon observing the extent of wetting of a strip of filter paper placed over the lower lid of an eye for a specified time. Standardized strips are commercially available. The strip is folded at a notched marking and is then placed over the edge of the lateral one-third of the eyelid. The strip is usually left in place for a period of time while the patient looks straight ahead in dim light.
The degree of wetting of the paper is measured in mm from the notch. For human patients, a normal end point is 5 mm of wetting at five minutes. For canine patients, the normal tear production is 14 to 20 mm. of wetting at one minute.

Setting [1] is: Example 3 English Bulldog, three drops of 2% pilocarpine by mouth, after two hours.

As for `CC[C@@H]1C(=O)OC[C@@H]1Cc1cncn1C` [pilocarpine], under setting [1], the “Schirmer tear test value, left eye” value is 10 mm/minute and the “Schirmer tear test value, right eye” value worked out at 0 mm/minute. The “Schirmer tear test values, both eyes” value (Example 4 Miniature Poodle, one drop 2% pilocarpine by mouth two times daily with ophthalmic petrolatum, after two weeks) is recorded as 0 mm/minute.
Take `C[C@@H]1C[C@H]2[C@@H]3CCC4=CC(=O)C=C[C@]4(C)[C@@]3(F)[C@@H](O)C[C@]2(C)[C@@]1(O)C(=O)CO` [dexamethasone]: under “Example 1 Poodle, topical, both eyes twice daily for nine weeks”, the “benefit of treatment (tear deficiency, conjunctivitis)” value is listed as “without benefit”.
